Our source for the IC50 values is US10894788B2, “Inhibitors of cyclin-dependent kinases” (Kinnate Biopharma Inc., priority 2018, dated 2021).

In this experiment the target is CDK12 (Homo sapiens (Human), UniProt Q9NYV4). Kind of experiment: Radiometric protein kinase assay (33PanQinase Activity Assay), Assay Condition B (thiol-free conditions). The experiment is classed as biochemical. The note with it: thiol-free conditions (1 mM TCEP, glutathione removed). As to the method: Example 2—Assay Condition B (Thiol-Free Conditions)
The IC50 profile of compounds was determined using one protein kinase in a customized, thiol free assay. […] Prior to testing, the 1×10^−03 M stock solutions in column 2 of the master plates were subjected to a serial, semi-logarithmic dilution using 100% DMSO as a solvent. […] Column 1 and 7 were filled with 100% DMSO as controls. Subsequently, 2×10 microliter from each well of the serial diluted copy plates were aliquoted with a 96 channel pipettor into two identical sets of “compound dilution plates”. All plates were barcoded for automated identification and tracking purposes. […] All compounds were stored as powder until being solubilized in DMSO. Solubilized compounds were stored as 1×10^−02 M/100% DMSO stock solutions. Prior to the assay process, 90 microliters of H2O were added to each well of a set of compound dilution plates. To minimize potential precipitation, the H2O was added to each plate only a few minutes before the transfer of the compound solutions into the assay plates. Each plate was shaken thoroughly, resulting in compound dilution plates with a final of 10% DMSO. For each assay, 5 microliters of solution from each well of the compound dilution plates/10% DMSO were transferred into the assay plate. The final volume of the assay was 50 μl. All compounds were tested at 10 final assay concentrations in the range from 1×10^−05 M to 3×10^−10 M, in singlicate. The final DMSO concentration in the reaction cocktails was 1% in all cases. A radiometric protein kinase assay (33PanQinase® Activity Assay) was used for measuring the kinase activity of the protein kinase. All kinase assays were performed in 96-well FlashPlates™ from PerkinElmer (Boston, Mass., USA) in a 50 microliter reaction volume. The reaction cocktail was pipetted in four steps in the following order: 20 microliter of assay buffer (standard buffer)·5 microliter of ATP solution (in H2O)·5 microliter of test compound (in 10% DMSO)·20 microliter enzyme/substrate mix. […] For all experiments labeled as “Thiol-free”, all glutathione was exchanged from protein preparations so as to be removed from the assay and final buffer conditions contained no thiol-containing reagents. This was done so there would be no interference with the key cysteines in the proteins of interest.
For data analysis, the median value of the counts in column 1 (n=8) of each assay plate was defined as “low control”. This value reflects unspecific binding of radioactivity to the plate in the absence of a protein kinase but in the presence of the substrate. The median value of the counts in column 7 of each assay plate (n=8) was taken as the “high control”, i.e. full activity in the absence of any inhibitor. The difference between high and low control was taken as 100% activity. As part of the data evaluation the low control value from a particular plate was subtracted from the high control value as well as from all 80 “compound values” of the corresponding plate. The residual activity (in %) for each well of a particular plate was calculated by using the following formula: Res. Activity (%)=100×[(cpm of compound−low control)/(high control−low control)]
The residual activities for each concentration and the compound IC50 values were calculated using Quattro Workflow V3.1.1 (Quattro Research GmbH, Munich, Germany; www.quattro-research.com). […] The fitting method used was a least-squares fit. As a parameter for assay quality, the Z′-factor (Zhang et al., J. Biomol. Screen. 2: 67-73, 1999) for the low and high controls of each assay plate (n=8) was used. ProQinase's criterion for repetition of an assay plate is a Z′-factor below 0.4 (Iversen et al., J. Biomol. Screen. 3: 247-252, 2006).

Sequence of CDK12 (Q9NYV4 whole entry): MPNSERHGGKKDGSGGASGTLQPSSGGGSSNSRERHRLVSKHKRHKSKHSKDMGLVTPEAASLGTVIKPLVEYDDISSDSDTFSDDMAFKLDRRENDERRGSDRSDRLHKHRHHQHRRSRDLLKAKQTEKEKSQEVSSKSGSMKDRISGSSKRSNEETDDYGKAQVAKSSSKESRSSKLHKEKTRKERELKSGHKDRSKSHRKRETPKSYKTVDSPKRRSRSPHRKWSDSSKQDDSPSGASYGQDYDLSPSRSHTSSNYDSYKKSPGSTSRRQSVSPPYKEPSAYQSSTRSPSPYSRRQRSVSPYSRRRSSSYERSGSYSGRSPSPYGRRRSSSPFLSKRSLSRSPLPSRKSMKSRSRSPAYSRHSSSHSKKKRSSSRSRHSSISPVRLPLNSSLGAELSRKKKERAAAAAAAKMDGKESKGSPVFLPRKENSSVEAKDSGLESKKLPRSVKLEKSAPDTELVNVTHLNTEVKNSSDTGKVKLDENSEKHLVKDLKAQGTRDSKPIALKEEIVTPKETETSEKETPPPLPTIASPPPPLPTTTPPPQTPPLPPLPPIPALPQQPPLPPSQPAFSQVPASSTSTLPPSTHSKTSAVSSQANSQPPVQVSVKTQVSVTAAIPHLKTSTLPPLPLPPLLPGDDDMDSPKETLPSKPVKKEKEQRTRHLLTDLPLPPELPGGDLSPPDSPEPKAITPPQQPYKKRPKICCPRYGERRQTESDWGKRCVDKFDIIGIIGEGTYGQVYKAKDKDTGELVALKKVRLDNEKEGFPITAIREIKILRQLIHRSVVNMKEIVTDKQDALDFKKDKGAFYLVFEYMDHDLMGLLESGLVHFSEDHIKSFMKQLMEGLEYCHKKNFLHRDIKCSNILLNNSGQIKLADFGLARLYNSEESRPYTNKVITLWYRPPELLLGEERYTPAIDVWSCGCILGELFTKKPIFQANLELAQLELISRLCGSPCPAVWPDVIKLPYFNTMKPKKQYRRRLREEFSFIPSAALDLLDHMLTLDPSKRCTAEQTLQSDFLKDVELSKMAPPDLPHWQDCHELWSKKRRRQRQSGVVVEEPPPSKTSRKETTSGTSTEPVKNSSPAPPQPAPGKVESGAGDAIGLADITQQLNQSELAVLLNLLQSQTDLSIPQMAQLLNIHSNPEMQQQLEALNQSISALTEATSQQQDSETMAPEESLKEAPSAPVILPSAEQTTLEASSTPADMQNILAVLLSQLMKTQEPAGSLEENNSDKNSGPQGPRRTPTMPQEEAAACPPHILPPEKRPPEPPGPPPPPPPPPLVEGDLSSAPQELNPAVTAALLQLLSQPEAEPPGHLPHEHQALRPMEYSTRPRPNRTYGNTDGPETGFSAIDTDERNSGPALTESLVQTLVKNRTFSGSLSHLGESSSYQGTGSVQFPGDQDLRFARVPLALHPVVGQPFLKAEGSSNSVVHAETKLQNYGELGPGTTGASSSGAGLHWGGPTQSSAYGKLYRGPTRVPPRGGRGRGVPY
Sequence of CDK12 (O75909 whole entry partner): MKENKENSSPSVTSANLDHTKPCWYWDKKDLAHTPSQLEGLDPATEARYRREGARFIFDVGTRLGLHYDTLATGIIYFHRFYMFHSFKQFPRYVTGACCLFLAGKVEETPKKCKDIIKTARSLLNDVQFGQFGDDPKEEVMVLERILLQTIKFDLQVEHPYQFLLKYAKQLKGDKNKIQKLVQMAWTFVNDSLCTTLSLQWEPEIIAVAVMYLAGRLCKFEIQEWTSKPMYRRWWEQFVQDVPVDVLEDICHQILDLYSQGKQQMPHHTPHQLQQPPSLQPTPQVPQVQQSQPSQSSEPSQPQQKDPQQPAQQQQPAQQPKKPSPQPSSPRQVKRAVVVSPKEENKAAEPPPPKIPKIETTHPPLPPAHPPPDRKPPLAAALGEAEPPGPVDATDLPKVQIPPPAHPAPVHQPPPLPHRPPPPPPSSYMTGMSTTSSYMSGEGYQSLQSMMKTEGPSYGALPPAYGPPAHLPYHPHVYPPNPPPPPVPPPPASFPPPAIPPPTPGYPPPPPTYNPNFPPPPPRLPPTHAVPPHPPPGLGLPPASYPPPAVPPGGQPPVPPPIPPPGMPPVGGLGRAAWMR

Usually IC50 stands for the concentration that inhibits the measured activity by half. A higher IC50 goes with weaker potency in that assay. As to `C=CC(=O)Nc1ccc(C(=O)N2CC[C@@H](Nc3nccc(OC4CCCC4)n3)C2)cc1` (stereo in doubt) [Example 45, N-{4-[3-(4-Cyclopentyloxy-pyrimidin-2-ylamino)-pyrrolidine-1-carbonyl]-phenyl}-acrylamide], the concentration for half-maximal inhibition (IC50) is 100 to 1000 nM.

Take `C=CC(=O)Nc1ccc(C(=O)N2CC[C@@H](Nc3nccc(Oc4cnn(C)c4)n3)C2)cc1` (stereo in doubt) [Example 46, N-(4-{3-[4-(1-Methyl-1H-pyrazol-4-yloxy)-pyrimidin-2-ylamino]-pyrrolidine-1-carbonyl}-phenyl)-acrylamide]: the IC50 lay within 1000 to 10000 nM. To `C=CC(=O)Nc1ccc(C(=O)N2CC[C@@H](Nc3nccc(-c4cncs4)n3)C2)cc1` (stereo in doubt) [Example 48, N-{4-[3-(4-Thiazol-5-yl-pyrimidin-2-ylamino)-pyrrolidine-1-carbonyl]-phenyl}-acrylamide] belongs 100 to 1000 nM. The figure for `C=CC(=O)Nc1ccc(C(=O)N2CC[C@@H](Nc3ncc(Cl)c(OC)n3)C2)cc1OC` [Example 1, (R)-N-(4-(3-((5-chloro-4-methoxypyrimidin-2-yl)amino)pyrrolidine-1-carbonyl)-2-methoxyphenyl)acrylamide] is < 100 nM; for `C=CC(=O)N1CCOc2cc(C(=O)N3CC[C@@H](Nc4ncc(Cl)c(OC)n4)C3)ccc21` [Example 2, (R)-1-(7-(3-((5-chloro-4-methoxypyrimidin-2-yl)amino)pyrrolidine-1-carbonyl)-2H-benzo[b][1,4]oxazin-4(3H)-yl)prop-2-en-1-one] it is 100 to 1000 nM; for `C=CC(=O)Nc1ccc(C(=O)N2CC[C@@H](Nc3ncc(Cl)c(OC)n3)C2)cc1-c1cnn(C)c1` [Example 4, (R)-N-(4-(3-((5-chloro-4-methoxypyrimidin-2-yl)amino)pyrrolidine-1-carbonyl)-2-(1-methyl-1H-pyrazol-4-yl)phenyl)acrylamide] it is 100 to 1000 nM. As for `C=CC(=O)Nc1ccc(C(=O)N2CC[C@@H](Nc3ncc(Cl)c(OC)n3)C2)cc1Cl` [Example 5, (R)-N-(2-chloro-4-(3-((5-chloro-4-methoxypyrimidin-2-yl)amino)pyrrolidine-1-carbonyl)phenyl)acrylamide], the IC50 was < 100 nM. Take `C=CC(=O)Nc1ccc(C(=O)N2CC[C@@H](Nc3ncc(Cl)cn3)C2)cc1Cl` [Example 6, (R)-N-(2-chloro-4-(3-((5-chloropyrimidin-2-yl)amino)pyrrolidine-1-carbonyl)phenyl)acrylamide]: the IC50 was < 100 nM. The figure for `C=CC(=O)Nc1nc(C(=O)N2CC[C@@H](Nc3ncc(Cl)c(OC)n3)C2)cs1` [Example 7, (R)-N-(4-(3-((5-chloro-4-methoxypyrimidin-2-yl)amino)pyrrolidine-1-carbonyl)thiazol-2-yl)acrylamide] is < 100 nM; for `C=CC(=O)Nc1ncc(C(=O)N2CC[C@@H](Nc3ncc(Cl)c(OC)n3)C2)s1` [Example 8, (R)—N-(5-(3-((5-chloro-4-methoxypyrimidin-2-yl)amino)pyrrolidine-1-carbonyl)thiazol-2-yl)acrylamide] it is 100 to 1000 nM; for `C=CC(=O)Nc1ccc(C(=O)N2CC[C@@H](Nc3ncc(Cl)c(OC)n3)C2)cc1N1CCN(C)CC1` [Example 9, (R)-N-(4-(3-((5-chloro-4-methoxypyrimidin-2-yl)amino)pyrrolidine-1-carbonyl)-2-(4-methylpiperazin-1-yl)phenyl)acrylamide] it is < 100 nM. As to `C=CC(=O)Nc1ccc(C(=O)N2CC[C@@H](Nc3ncc(Cl)c(OC)n3)C2)cc1N1CCOCC1` [Example 10, (R)—N-(4-(3-((5-chloro-4-methoxypyrimidin-2-yl)amino)pyrrolidine-1-carbonyl)-2-morpholinophenyl)acrylamide], the IC50 was < 100 nM.

As to `C=CC(=O)Nc1ccc(C(=O)N2CC[C@@H](Nc3ncc(Cl)c(OC)n3)C2)cc1N1CCCCC1` [Example 11, (R)—N-(4-(3-((5-chloro-4-methoxypyrimidin-2-yl)amino)pyrrolidine-1-carbonyl)-2-(piperidin-1-yl)phenyl)acrylamide], the IC50 is < 100 nM. `C=CC(=O)Nc1ccc(C(=O)N2CC[C@@H](Nc3ncc(Cl)cn3)C2)cc1-c1cnn(C)c1` [Example 12, (R)—N-(4-(3-((5-chloropyrimidin-2-yl)amino)pyrrolidine-1-carbonyl)-2-(1-methyl-1H-pyrazol-4-yl)phenyl)acrylamide] returned an IC50 of 100 to 1000 nM.

With `CCC(=O)Nc1ccc(C(=O)N2CC[C@@H](Nc3ncc(F)c(OC4CC4)n3)C2)cc1` [Example 13, (R)—N-(4-(3-((4-cyclopropoxy-5-fluoropyrimidin-2-yl)amino)pyrrolidine-1-carbonyl)phenyl)propionamide], the 50% inhibitory concentration (IC50) was 1000 to 10000 nM.

The compound `CCC(=O)Nc1ccc(C(=O)N2CC[C@@H](Nc3ncc(Cl)c(OC4CC4)n3)C2)cc1` [Example 15, (R)—N-(4-(3-((5-chloro-4-cyclopropoxypyrimidin-2-yl)amino)pyrrolidine-1-carbonyl)phenyl)propionamide] had an IC50 of 100 to 1000 nM. Compound `CCC(=O)Nc1ccc(C(=O)N2CC[C@@H](Nc3ncc(C)c(OC4CC4)n3)C2)cc1` [Example 16, (R)—N-(4-(3-((4-cyclopropoxy-5-methylpyrimidin-2-yl)amino)pyrrolidine-1-carbonyl)phenyl)propionamide] showed a half-inhibitory concentration (IC50) of 1000 to 10000 nM. Turning to `CCC(=O)Nc1ccc(C(=O)N2CC[C@@H](Nc3ncc(Cl)c(OCC(F)(F)F)n3)C2)cc1` [Example 18, (R)—N-(4-(3-((5-chloro-4-(2,2,2-trifluoroethoxy)pyrimidin-2-yl)amino)pyrrolidine-1-carbonyl)phenyl)propionamide], the IC50 is 100 to 1000 nM. As for `C=CC(=O)Nc1ccc(C(=O)N2CC[C@@H](Nc3ncc(Cl)c(OC4CC4)n3)C2)cc1` [Example 21, (R)—N-(4-(3-((5-chloro-4-cyclopropoxypyrimidin-2-yl)amino)pyrrolidine-1-carbonyl)phenyl)acrylamide], the IC50 is < 100 nM.

For `C=CC(=O)Nc1ccc(C(=O)N2CC[C@@H](Nc3ncc(C)c(OC4CC4)n3)C2)cc1` [Example 22, (R)—N-(4-(3-((4-cyclopropoxy-5-methylpyrimidin-2-yl)amino)pyrrolidine-1-carbonyl)phenyl)acrylamide], the IC50 lay within 100 to 1000 nM.

For the compound `C=CC(=O)Nc1ccc(C(=O)N2CC[C@@H](Nc3ncc(F)c(OC4CC4)n3)C2)cc1` [Example 23, (R)—N-(4-(3-((4-cyclopropoxy-5-fluoropyrimidin-2-yl)amino)pyrrolidine-1-carbonyl)phenyl)acrylamide], the IC50 lay in the range of 100 to 1000 nM. The figure for `C=CC(=O)Nc1ccc(C(=O)N2CC[C@@H](Nc3ncc(Cl)c(OCC(F)(F)F)n3)C2)cc1` [Example 24, (R)—N-(4-(3-((5-chloro-4-(2,2,2-trifluoroethoxy)pyrimidin-2-yl)amino)pyrrolidine-1-carbonyl)phenyl)acrylamide] is < 100 nM; for `C=CC(=O)N1CCc2cc(C(=O)N3CC[C@@H](Nc4ncc(Cl)c(OC)n4)C3)ccc21` [Example 27, (R)-1-(5-(3-((5-chloro-4-methoxypyrimidin-2-yl)amino)pyrrolidine-1-carbonyl)indolin-1-yl)prop-2-en-1-one] it is < 100 nM; for `C=CC(=O)N1CCc2cc(C(=O)N3CC[C@@H](Nc4ncc(Cl)cn4)C3)ccc21` [Example 30, (R)-1-(5-(3-((5-chloropyrimidin-2-yl)amino)pyrrolidine-1-carbonyl)indolin-1-yl)prop-2-en-1-one] it is < 100 nM.

Consider `C=CC(=O)Nc1ccc(C(=O)N2CC[C@@H](Nc3ncc(Cl)cn3)C2)cc1OC` [Example 31, (R)—N-(4-(3-((5-chloropyrimidin-2-yl)amino)pyrrolidine-1-carbonyl)-2-methoxyphenyl)acrylamide], for which the concentration for half-maximal inhibition (IC50) is < 100 nM.
